From article PMC12677653, “Inhibition of Tumor Lipogenesis and Growth by Peptide‐Based Targeting of SREBP Activation” (Advanced Science, 2025)

Columns and labels:
Hep3B cells = test: Cell proliferation, Hep3B; type: cell-based, human; details: peptide 25 μM 1 h, IGF1 100 ng/mL 72 h, automated cell counting, n = 3
Protocol: Cells were seeded in 96‐well plates at a density of 5000 cells per well in 100 µL complete growth medium. Following a 24‐hour incubation period (37 °C, 5% CO2) to permit cell adherence, the culture medium was replaced with fresh low serum contained complete medium containing either Insig1/2 loop1 peptide (0–100 µM concentration range) or PBS. Cells were maintained under these conditions for 72 hours. After treatment, the culture medium was carefully aspirated, and cells were washed twice with 200 µL phosphate‐buffered saline (PBS, pH 7.4). Fixed was performed using 4% paraformaldehyde (100 µL/well) for 15 min at room temperature, followed by three PBS washes (200 µL/well) to remove residual fixative. 0.1% (w/v) crystal violet staining solution was prepared by dissolving crystal violet powder in 10% ethanol, followed by filtration through a 0.22 µm membrane. Each well received 80 µL of staining solution and was incubated for 15 min at room temperature, protected from light. […] Plates were agitated at 200 rpm for 10 min to ensure complete dissolution before measuring absorbance at 582 nm using a microplate reader. […]
g) Cell proliferation was assessed by automated cell counting after 72 h of IGF1 stimulation (100 ng ml⁻¹) in Hep3B cells pretreated with Insig1/2 loop 1 peptide (25 μM) for 1 h.

[1] = tested on: Insig1 pS207/Insig2 pS151, SREBP1, Ki67; test: IHC analysis of mouse tumors derived from Huh7 cells; type: in vivo, BALB/c athymic nude mice; details: peptide given as LNP@Insig1/2 loop 1 peptide 10 mg/kg iv, lenvatinib mesylate 2 mg/kg oral
Protocol: Representative micrographs are shown (scale bar: 20 µm). b,c) Cryosections of mouse tumor tissues were prepared for histological analysis. (b) Lipid accumulation was assessed by Oil Red O staining. Representative micrographs are shown (scale bar: 20 µm). (c) Apoptotic cells were detected by TUNEL assay. Representative micrographs are shown (scale bar: 20 µm). d,e) Quantitative analysis of (d) apoptotic areas (TUNEL‐positive regions) and (e) lipid droplet counts (Oil Red O‐positive particles) was performed. Data represent the mean ± SD (n = 4). Statistical significance was determined by one‐way analysis of variance (ANOVA). ** p < 0.01, **** p < 0.0001, ns, no significance.
As described previously,^[ [39] ^] IHC staining was performed using the Vectastain ABC kit (Vector Laboratories) according to the manufacturer's instructions. Sections of paraffin‐embedded xenograft tumors were stained with antibodies against Ki67, SREBP1, Insig1 pS207/Insig2 pS151, and nonspecific IgG was used as a negative control. Paraffin‐embedded human liver tumor sections were stained with antibodies against Ki67, SREBP1, Insig1 pS207/Insig2 pS151, with nonspecific IgG as a negative control. The tissue sections were quantitatively scored according to the percentage of positive cells and staining intensity. […] The intensity of staining was rated on a scale of 0 to 3: 0, negative; 1, weak; 2, moderate; and 3, strong. The study then combined the proportion and intensity scores to obtain a total score (range, 0–8).

For “RKKRRQRRRLYPCIDSHLGEPHKFKRE [Insig1/2 loop 1 peptide]”, the “IGF1-induced increase in proliferation” value (Hep3B cells) was “inhibited”, the “Insig1 S207/Insig2 S151 phosphorylation in tumors” value [1] was “reduced” and the “Ki67 expression in tumors” value [1] was “reduced”. For the same sequence, the “SREBP1 expression and nuclear accumulation in tumors” value [1] was “reduced”.
